According to EP0306698A1, “Condensed diazepinones, processes for their preparation, and medicaments containing these compounds” (Dr. Karl Thomae GmbH, priority 1987, dated 1989):
Counter-ions that a name gives are not always drawn. Like-named read-outs stand apart in the source and are kept apart here.

Key:
[1] = test system: Acetylcholinwirkung auf Herzfrequenz; assay: Inhibition of the acetylcholine effect on heart rate; format: in vivo, Meerschweinchen; conditions: for ED50: Cavia porcellus, 5 min, anaesthetised guinea pig, acetylcholine 5 min after test substance, heart rate
Text: (§1) Dabei wurde die Herzfrequenz durch extrakorporale Ableitung des EKG, der Ausatemwiderstand nach Konzett-Rößler und die Kontraktion […] an den untersuchten Organen wurden Dosis-Wirkungskurven aufgenommen und daraus -log EDso-Werte bestimmt. Ergebnisse siehe Tabelle V.

[2] = test system: Acetylcholinwirkung auf Bronchien; assay: Inhibition of the acetylcholine effect on bronchi; format: in vivo, Meerschweinchen; conditions: for ED50: Cavia porcellus, 5 min, anaesthetised guinea pig, acetylcholine 5 min after test substance, expiratory resistance, read-out: -log ED50 Bronchien (converted)
Text: as §1

[3] = target: T1, muskarinischen Rezeptoren (Tränendrüsen) (Rattus norvegicus, UniProt P08483); conditions: in vivo, iv
M1 = M1 activity in the rat: inhibition of blood pressure rise caused by McN-A-343; format: in vivo, Ratte
Method: (§2) Die angewandte Methode wurde von Hammer und Giachetti (Life Sciences 31, 2991-2998 (1982)) beschrieben. 5 Minuten nach intravenöser Injektion steigender Dosen der Substanz wurden entweder der rechte Vagus elektrisch stimuliert (Frequenz: 25 Hz; Pulsbreite: 2ms; Reizdauer: 30s; Voltzahl: supramaximal) oder 0,3 mg/kg McN-A-343 in männliche THOM-Ratten intravenös injiziert. Die durch Vagusstimulation hervorgerufene Bradykardie und der durch McN-A-343 verursachte Blutdruckanstieg wurden bestimmt. Die Dosis der Substanzen, die entweder die vagale Bradykardie (M2) oder den Blutdruckanstieg (Mi) um 50% verminderte, wurde graphisch ermittelt. Ergebnisse siehe Tabelle II.

[4] = test system: Acetylcholinwirkung auf Blase; assay: Inhibition of the acetylcholine effect on bladder; format: in vivo, Meerschweinchen; conditions: for ED50: Cavia porcellus, 5 min, anaesthetised guinea pig, acetylcholine 5 min after test substance, bladder contraction, read-out: -log ED50 Blase (converted)
Text: as §1

[5] = target: T2, muskarinischen Rezeptoren (Atrium) (Rattus norvegicus, UniProt P10980); assay: Receptor binding test in vivo (3H-NMS), heart atrium; set-up: species or system Ratten
T2 construct: wurden die Tiere getötet, das Herz, die Bronchien und die Tränendrüsen entnommen; from tissue; host or cells: rat heart (atrium, ventricle), in vivo labelling with 3H-NMS
T2 sequence (P10980 1-466): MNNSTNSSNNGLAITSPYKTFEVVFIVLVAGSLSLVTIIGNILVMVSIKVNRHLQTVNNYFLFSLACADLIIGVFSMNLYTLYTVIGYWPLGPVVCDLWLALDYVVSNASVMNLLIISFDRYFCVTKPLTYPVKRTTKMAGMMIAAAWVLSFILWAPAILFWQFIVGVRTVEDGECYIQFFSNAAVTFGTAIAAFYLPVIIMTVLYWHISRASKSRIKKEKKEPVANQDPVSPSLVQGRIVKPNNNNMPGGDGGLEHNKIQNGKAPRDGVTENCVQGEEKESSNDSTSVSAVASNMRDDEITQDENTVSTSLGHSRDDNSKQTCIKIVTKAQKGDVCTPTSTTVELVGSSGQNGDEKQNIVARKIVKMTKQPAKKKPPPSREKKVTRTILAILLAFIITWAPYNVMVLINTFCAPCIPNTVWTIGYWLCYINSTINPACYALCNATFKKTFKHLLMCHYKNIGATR
Text: Für diese Experimente wurden weibliche Ratten mit einem Körpergewicht von ca. 200 g verwendet. Vor Versuchsbeginn wurden die Tiere mit einer Dosis von 1,25 g/kg Urethan narkotisiert. Die Tiere erhielten jeweils die vorgesehene Dosis der Prüfsubstanz durch i.v. Injektion. […] Nach weiteren 15 Minuten wurden die Tiere getötet, das Herz, die Bronchien und die Tränendrüsen entnommen. Diese Organe wurden in Soluene R aufgelöst und die Radioaktivität bestimmt. Diese Messwerte wurden als Totalbindung angenommen. […] Aus diesen Versuchen wurden für die einzelnen Organe IDso-Werte ermittelt. Die IDso-Werte sind Dosen der Prüfsubstanzen, die 50% der spezifischen Bindung von ^3H-NMS an die muskarinischen Rezeptoren der jeweiligen Organe hemmten.

[6] = target: T3, muskarinischen Rezeptoren (Ventrikel) (Rattus norvegicus, UniProt P10980); assay: Receptor binding test in vivo (3H-NMS), heart ventricle; set-up: species or system Ratten; conditions: iv
T3 construct: wurden die Tiere getötet, das Herz, die Bronchien und die Tränendrüsen entnommen; from tissue; host or cells: rat heart (atrium, ventricle), in vivo labelling with 3H-NMS
T3 sequence (P10980 1-466): T2 sequence (P10980 1-466)
Method: Für diese Experimente wurden weibliche Ratten mit einem Körpergewicht von ca. 200 g verwendet. Vor Versuchsbeginn wurden die Tiere mit einer Dosis von 1,25 g/kg Urethan narkotisiert. Die Tiere erhielten jeweils die vorgesehene Dosis der Prüfsubstanz durch i.v. Injektion. Nach Ablauf von 15 Minuten wurde auf gleiche Weise 113 ng/kg ^3H-N-Methylscopolamin (^3H-NMS) gegeben. Nach weiteren 15 Minuten wurden die Tiere getötet, das Herz, die Bronchien und die Tränendrüsen entnommen. Diese Organe wurden in Soluene R aufgelöst und die Radioaktivität bestimmt. Diese Messwerte wurden als Totalbindung angenommen. […] Aus diesen Versuchen wurden für die einzelnen Organe IDso-Werte ermittelt. Die IDso-Werte sind Dosen der Prüfsubstanzen, die 50% der spezifischen Bindung von ^3H-NMS an die muskarinischen Rezeptoren der jeweiligen Organe hemmten.

Speichelsekretion = assay: Inhibition of pilocarpine-induced salivation in the rat; format: in vivo, Ratte; conditions: for ED50: Rattus norvegicus, iv, dose reducing saliva volume by 50%, pilocarpine 2 mg/kg s.c., read-out: Speichelsekretionshemmung (Ratte) ED50
Method: Nach Lavy und Mulder (Arch. int. Pharmacodyn. 178, 437-445, (1969)) erhielten mit 1,2 g/kg Urethan narkotisierte männliche THOM-Ratten steigende Dosen der Substanz i.v.. Die Speichelsekretion wurde durch s.c. Gabe von 2 mg/kg Pilocarpin ausgelöst. Der Speichel wurde mit Fließpapier aufgesaugt, die von ihm eingenommene Fläche alle 5 Minuten planimetrisch bestimmt. Die Dosis der Substanz, die das Speichelvolumen um 50% verminderte, wurde graphisch ermittelt. Ergebnisse siehe Tabelle 11.

Solubility in water = format: physicochemical; conditions: for Löslichkeit in Wasser: result in words; for solubility: water, read-out: Löslichkeit in Wasser
[7] = target: T1, muskarinischen Rezeptoren (Tränendrüsen); assay: in vivo; conditions: iv, 0.5 h, read-out: ID50 Tränendrüsen
[8] = target: T4, muscarinischen Rezeptoren (Herz) (Rattus norvegicus, UniProt P10980); assay: biochemical; format: binding, Ratte; conditions: whole heart homogenate 1:400, 0,3 nmolar 3H-NMS, 30°C, 45 min; read-out: Rezeptor-Bindungs-Tests -log IC50 Herz (converted)
T4 construct: Das Gesamtherz wurde mit einer Schere zerkleinert; Alle Organe wurden abschließend in einem Potter homogenisiert; from tissue; host or cells: rat whole heart homogenate
T4 sequence (P10980 1-466): T2 sequence (P10980 1-466)
Text: Als Organspender dienten männliche Sprague-Dawley-Ratten mit 180-220 g Körpergewicht. Nach Entnahme von Herz und Submandibularis wurden alle weiteren Schritte in eiskaltem Hepes-HCI-Puffer (pH 7,4; 100 m molar NaCI, 10 m molar MgCI2) vorgenommen. Das Gesamtherz wurde mit einer Schere zerkleinert. Alle Organe wurden abschließend in einem Potter homogenisiert.
Für den Bindungstest wurden die Organhomogenate in folgender Weise verdünnt: • Gesamtherz 1:400 • Submandibularis 1:400
Die Inkubation der Organhomogenate erfolgte bei einer bestimmten Konzentration des Radioliganden und einer Konzentrationsreihe der nichtradioaktiven Testsubstanzen im Eppendorf-Zentrifugenröhrchen bei 30°C. Die Inkubationsdauer betrug 45 Minuten. Als Radioligand wurde 0,3 nmolar ^3H-N-Methylscopolamin (^3H-NMS) verwendet. Die Inkubation wurde durch Zugabe von eiskaltem Puffer mit nachfolgender Vakuumfiltration beendet. Die Filter wurden mit kaltem Puffer gespült und ihre Radioaktivität bestimmt. Sie repräsentiert die Summe von spezifischer und unspezifischer Bindung von ^3H-NMS. Der Anteil der unspezifischen Bindung wurde definiert als jene Radioaktivität die in Anwesenheit von 1 u. molar Quinciidinylbenzilat gebunden wurde. Es wurden immer Vierfachbestimmungen vorgenommen. Die ICso-Werte der nicht markierten Testsubstanzen wurden graphisch bestimmt. Sie repräsentieren jene Konzentration der Testsubstanz, bei welcher die spezifische Bindung von ^3H-NMS an die muscarinischen Rezeptoren in den verschiedenen Organen um 50 % gehemmt wurde.

M2 = M2 activity in the rat: inhibition of bradycardia induced by vagus stimulation; format: in vivo, Ratte; conditions: i.v.; dose reducing vagal bradycardia by 50%; 5 min after injection
Method: as §2

[9] = i.v., dose reducing McN-A-343 (0,3 mg/kg) blood pressure rise by 50%, 5 min
[10] = ratio of ED50 salivation inhibition to ED50 M2 activity, rat

T1 sequence (P08483 whole entry): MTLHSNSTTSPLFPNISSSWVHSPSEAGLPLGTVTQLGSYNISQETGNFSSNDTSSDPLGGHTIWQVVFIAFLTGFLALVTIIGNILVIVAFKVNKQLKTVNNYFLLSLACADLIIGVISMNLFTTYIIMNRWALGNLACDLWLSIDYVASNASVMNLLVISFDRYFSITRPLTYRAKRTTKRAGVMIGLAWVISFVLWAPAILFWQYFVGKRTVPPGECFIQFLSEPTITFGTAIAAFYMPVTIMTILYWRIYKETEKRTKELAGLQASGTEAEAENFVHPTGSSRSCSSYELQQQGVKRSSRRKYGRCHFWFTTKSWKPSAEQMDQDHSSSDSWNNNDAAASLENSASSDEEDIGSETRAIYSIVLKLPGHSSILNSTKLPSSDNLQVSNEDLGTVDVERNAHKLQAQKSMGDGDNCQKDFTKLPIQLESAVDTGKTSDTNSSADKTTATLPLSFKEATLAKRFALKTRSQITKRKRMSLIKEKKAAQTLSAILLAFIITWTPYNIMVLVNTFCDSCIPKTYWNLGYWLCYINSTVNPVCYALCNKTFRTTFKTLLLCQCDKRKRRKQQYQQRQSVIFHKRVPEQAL

Compound	ED50 [1] [µmol/kg]	ED50 [2] [µmol/kg]	M1-Aktivität (Ratte) ED50 (M1; [9])	ED50 [4] [µmol/kg]	IC50 [8] [nM]	M2-Aktivität (Ratte) ED50 (M2)	ED50 (Speichelsekretion) [mg/kg]	other results
CN1C2CCC1CC(OC(=O)C(CO)c1ccccc1)C2 (racemic) [Z, Atropin, reference compound]	–	–	–	–	–	–	–	-log ED50 Herz ([1]; in vivo): 7,70 Molkg^-1; -log ED50 Bronchien ([2]; in vivo): 7,96 Molkg^-1; ID50 Tränendrüsen [3]: 0,2 mg/kg; M1-Aktivität (Ratte) ED50 (M1; in vivo): 16 µg/kg; -log ED50 Blase ([4]; in vivo): 7,03 Molkg^-1; Verhältnis der ID50 Tränendrüse zu ID50 des Atrium ([5]; in vivo): 1,5; ID50 Herz Atrium ([5]; in vivo, iv): 0,08 mg/kg; ID50 Herz Ventrikel ([6]; in vivo): 0,03 mg/kg; Verhältnis Speichelsekretionshemmung zu M2-Aktivität (Speichelsekretion; in vivo): 2,2
O=C1Nc2cccnc2N(C(=O)N2CCCC(CCCN3CCCCC3)C2)c2ccccc21 (stereo not drawn) [A, 5,11-Dihydro-11-[[3-[3-(1-piperidinyl)propyl]-1-piperidinyl]carbonyl]-6H-pyrido[2,3-b][1,4]-benzodiazepin-6-on]	0.0871	0.117	49 µg/kg	1.35	2	6,9 µg/kg	0.035	Löslichkeit in Wasser (Solubility in water; methanesulfonate salt): leicht löslich; solubility (Solubility in water; hydrochloride salt): ~2000 µg/mL; solubility (Solubility in water; salt with N-Cyclohexylsulfamidsäure): ~10000 µg/mL; ED50 [7]: 0.2 mg/kg; ED50 ([5]; rat, iv, 0.5 h; read-out: ID50 Herz Atrium): 0.01 mg/kg; Verhältnis Speichelsekretionshemmung zu M2-Aktivität (Speichelsekretion; [10]): 5
Cl.O=C1Nc2cccnc2N(C(=O)N2CCCC(CCCN3CCCC3)C2)c2ccccc21 (stereo not drawn) [B, 5,11-Dihydro-11-[[3-[3-(1-pyrrolidinyl)propyl]-1-piperidinyl]carbonyl]-6H-pyrido[2,3-b][1,4]-benzodiazepin-6-on-hydrochlorid]	0.0661	0.0871	–	0.692	10	–	–	solubility (Solubility in water; hydrochloride salt): ~3000 µg/mL
CCN(CC)CCCCC1CCCCN1C(=O)N1c2ccccc2C(=O)Nc2cccnc21 (stereo not drawn) [Beispiel 4, 11-[[2-[4-(Diethyiamino)butyl]-1-piperidinyl]carbonyl]-5,11-dihydro-6H-pyrido[2,3-b][1,4]benzodiazepin-6-on]	–	–	–	–	–	–	–	Löslichkeit in Wasser (Solubility in water; dihydrochloride): wasserlösliche
CS(=O)(=O)O.O=C1Nc2cccnc2N(C(=O)N2CCCC(CCN3CCCCC3)C2)c2ccccc21 (stereo not drawn) [C, 5,11-Dihydro-11-[[3-[2-(1-piperidinyl)ethyl]-1-piperidinyl]carbonyl]-6H-pyrido[2,3-b][1,4]-benzodiazepin-6-on-methansulfonat]	0.0427	0.0417	39 µg/kg	0.355	3.02	7,6 µg/kg	0.058	Verhältnis Speichelsekretionshemmung zu M2-Aktivität (Speichelsekretion; [10]): 7,6
O=C1Nc2cccnc2N(C(=O)N2CCCC(CCN3CCCC3)C2)c2ccccc21 (stereo not drawn) [D, 5,11-Dihydro-11-[[3-(2-(1-pyrrolidinyl)ethyl]-1-piperidinyl]carbonyl]-6H-pyrido[2,3-b][1,4]-benzodiazepin-6-on-hydrochlorid]	0.0479	0.0324	–	0.708	6.03	–	–	–
CN(CCC1CCCN(C(=O)N2c3ccccc3C(=O)Nc3cccnc32)C1)C1CCCC1 (stereo not drawn) [E, 11-[[3-[2-[(Cyclopentyl)methylamino]ethyl]-1-piperidinyl]carbonyl]-5,11-dihydro-6H-pyrido[2,3-b]-[1,4]-benzodiazepin-6-on-hydrochlorid]	0.0813	0.0977	–	0.891	3.02	–	–	–
O=C1Nc2cccnc2N(C(=O)N2CCCC(CCN3CCCCCC3)C2)c2ccccc21 (stereo not drawn) [F, 5,11-Dihydro-11-[[3-[2-(hexahydro-1H-1-azepinyl)ethyl]-1-piperidinyl]carbonyl]-6H-pyrido[23-b]-[1,4]benzodiazepin-6-on-hydrochlorid]	0.0162	0.0398	–	0.38	3.02	–	–	–
O=C1Nc2ccccc2N(C(=O)N2CCCC(CCN3CCCCC3)C2)c2ncccc21 (stereo not drawn) [G, 6,11-Dihydro-11-[[3-[2-(1-piperidinyl)ethyl]-1-piperidinyl]carbonyl]-5H-pyrido[23-b][1,5]-benzodiazepin-5-on]	0.0148	0.0263	7,16 µg/kg	0.302	3.98	8,13 µg/kg	0.00683	Verhältnis Speichelsekretionshemmung zu M2-Aktivität (Speichelsekretion; [10]): 20,00
CCN(CC)CC1CCCCN1CC(=O)N1c2ccccc2C(=O)Nc2cccnc21 (stereo not drawn) [X, 11-[[2-[(Diethylamino)methyl]-1-piperidinyl]acetyl]-5,11-dihydro-6H-pyrido[2,3-b][1,4]-benzodiazepin-6-on, reference compound]	1.45	2.63	988 µg/kg	18.6	151	160 µg/kg	–	ED50 [7]: > 30 mg/kg; ED50 ([5]; rat, iv, 0.5 h, read-out: ID50 Herz Atrium): 1 mg/kg; ED50 ([6]; rat, 0.5 h, read-out: ID50 Herz Ventrikel): 0.6 mg/kg
CN1CCN(CC(=O)N2c3ccccc3C(=O)Nc3cccnc32)CC1 [Y, 5,11-Dihydro-11-[(4-methyl-1-piperazinyl)acetyl]-6H-pyrido[2.3-b][1,4]benzodiazepin-6-on, reference compound]	1.41	0.269	–	4.37	–	–	0.084	–
